According to patent publication US20230330234A1, “HYPERBRANCHED POLYESTER POLYOL DERIVATIVE AS DRUG SOLUBILIZER” (FREIE UNIVERSITÄT BERLIN, priority 2020, published 2023):
Values after ≈ are worked out from the molar mass of the structure shown. Read-outs that look alike come from different tables or passages of the source.

What was measured:
[1] = physchem; settings: aqueous with cosolvent or surfactant or cyclodextrin, thermodynamic from solid
[2] = Solubility in water

Structure (SMILES)	solubility at 18 h [1] [µg/mL]	solubility ([2]; Solubility in water) [µg/mL]	Solubility in water [2] [µg/mL]	solubility [2] [µg/mL]
CCN1[C@@H](C(=O)NC23CCC(C(=O)O)(CC2)CC3)[C@H](c2cccc(Cl)c2F)[C@]2(C(=O)Nc3cc(Cl)ccc32)C12CCCCC2 [APG-115]	> 300	2 (≈ 3.11 µM)	–	–
COc1cc2nccc(Oc3ccc(NC(=O)C4(C(=O)Nc5ccc(F)cc5)CC4)cc3)c2cc1OC [Cabozantinib]	> 300	2 (≈ 3.99 µM)	–	–
COc1ncc(-c2nc3c(n2C(C)C)[C@H](c2ccc(Cl)cc2)N(c2cc(Cl)cn(C)c2=O)C3=O)c(OC)n1 [Siremadlin]	> 300	1 (≈ 1.8 µM)	–	–
COc1cc(Nc2c(C#N)cnc3cc(OCCCN4CCN(C)CC4)c(OC)cc23)c(Cl)cc1Cl [Bosutinib]	> 300	10 (≈ 18.9 µM)	–	–
Cc1nc(Nc2ncc(C(=O)Nc3c(C)cccc3Cl)s2)cc(N2CCN(CCO)CC2)n1 [Dasatinib]	> 300	–	–	–
CC(C)NC[C@@H](C(=O)N1CCN(c2ncnc3c2[C@H](C)C[C@H]3O)CC1)c1ccc(Cl)cc1 [Ipatasertib]	> 300	50 (≈ 109 µM)	–	–
Cn1ncc(Cl)c1-c1cc(C(=O)N[C@H](CN)Cc2cccc(F)c2)sc1Cl [GSK2110183]	> 300	7 (≈ 16.4 µM)	–	–
Cc1ccc(C(=O)Nc2ccc(CN3CCN(C)CC3)c(C(F)(F)F)c2)cc1C#Cc1cnc2cccnn12 [Ponatinib]	> 300	2 (≈ 3.76 µM)	–	–
CN1CC[C@@H](NC(=O)Nc2ccc(C#N)cc2)C[C@@H]1c1nc2ccccc2[nH]1 [Glasdegib]	> 300	50 (≈ 134 µM)	–	–
CN(C)C1CCN(C(=O)c2ccc(NC(=O)Nc3ccc(-c4nc(N5CCOCC5)nc(N5CCOCC5)n4)cc3)cc2)CC1 [Gedatolisib]	> 300	40 (≈ 65 µM)	–	–
COc1cc2ncnc(Nc3ccc(F)c(Cl)c3)c2cc1NC(=O)/C=C/CN1CCCCC1 [Dacomitinib]	> 300	9 (≈ 19.2 µM)	–	–
CO[C@@H](C)Cn1c(=O)n(C)c2cnc3ccc(-c4cncc(C(C)(C)O)c4)cc3c21 [LY3023414]	> 300	80 (≈ 197 µM)	–	–
Cc1cn(-c2cc(NC(=O)c3ccc(C)c(Nc4nccc(-c5cccnc5)n4)c3)cc(C(F)(F)F)c2)cn1 [Nilotinib]	> 300	2 (≈ 3.78 µM)	–	–
C[C@@H]1C[C@H]2[C@@H]3CCC4=CC(=O)C=C[C@]4(C)[C@@]3(F)[C@@H](O)C[C@]2(C)[C@@]1(O)C(=O)CO [Dexamethasone]	< 100	–	–	–
CN1CCN(c2ccc(C(=O)Nc3n[nH]c4ccc(Cc5cc(F)cc(F)c5)cc34)c(NC3CCOCC3)c2)CC1 [Entrectinib]	> 300	9 (≈ 16.1 µM)	–	–
Cn1ncc(Cl)c1-c1cc(C(=O)N[C@H](CN)Cc2ccc(F)c(F)c2)oc1Cl [Uprosertib]	> 300	30 (≈ 69.9 µM)	–	–
N#CC[C@H](C1CCCC1)n1cc(-c2ncnc3[nH]ccc23)cn1 [Ruxolitinib]	> 300	–	–	–
Cc1nc(NC(=O)N2CCC[C@H]2C(N)=O)sc1-c1ccnc(C(C)(C)C(F)(F)F)c1 [Alpelisib]	> 300	5 (≈ 11.3 µM)	–	–
Cn1cnc2c(F)c(Nc3ccc(Br)cc3Cl)c(C(=O)NOCCO)cc21 [Selumetinib]	> 300	40 (≈ 87.4 µM)	–	–
C#Cc1cccc(Nc2ncnc3cc(OCCOC)c(OCCOC)cc23)c1 [Erlotinib]	> 300	10 (≈ 25.4 µM)	–	–
CNC(=O)c1ccccc1Sc1ccc2c(/C=C/c3ccccn3)n[nH]c2c1 [Axitinib]	> 300	–	0.5 (≈ 1.29 µM)	–
CCCS(=O)(=O)Nc1ccc(F)c(C(=O)c2c[nH]c3ncc(-c4ccc(Cl)cc4)cc23)c1F [Vemurafenib]	> 300	0.3 (≈ 0.612 µM)	–	–
COc1cc(C(=O)O)ccc1NC(=O)[C@@H]1N[C@@H](CC(C)(C)C)[C@](C#N)(c2ccc(Cl)cc2F)[C@H]1c1cccc(Cl)c1F [Idasanutlin]	> 300	1 (≈ 1.62 µM)	–	–
C=CC(=O)Nc1cc(Nc2nccc(-c3cn(C)c4ccccc34)n2)c(OC)cc1N(C)CCN(C)C [Osimertinib]	> 300	20 (≈ 40 µM)	–	–
Cn1cnc2c(F)c(Nc3ccc(Br)cc3F)c(C(=O)NOCCO)cc21 [Binimetinib]	> 300	50 (≈ 113 µM)	–	–
Nc1ccccc1NC(=O)c1ccc(CNC(=O)OCc2cccnc2)cc1 [Entinostat]	> 300	5 (≈ 13.3 µM)	–	–

Structure (SMILES)	solubility at 18 h [1] [µg/mL]	solubility ([2]; Solubility in water) [µg/mL]	Solubility in water [2] [µg/mL]	solubility [2] [µg/mL]
O=C(/C=C/c1cccc(S(=O)(=O)Nc2ccccc2)c1)NO [Belinostat]	> 300	30 (≈ 94.2 µM)	–	–
CCN(CCCOc1ccc2c(Nc3cc(CC(=O)Nc4cccc(F)c4)n[nH]3)ncnc2c1)CCOP(=O)(O)O [Barasertib]	> 300	50 (≈ 85.1 µM)	–	–
CNCc1ccc(-c2[nH]c3cc(F)cc4c3c2CCNC4=O)cc1 [Rucaparib]	> 300	10 (≈ 30.9 µM)	–	–
COc1ccc(-c2nc(N3CCOCC3)c3sc(CN(C)c4ncc(C(=O)NO)cn4)cc3n2)cn1 [Fimepinostat]	> 300	2 (≈ 3.93 µM)	–	–
Nc1ccccc1NC(=O)c1ccc(CNc2nccc(-c3cccnc3)n2)cc1 [Mocetinostat]	> 300	8 (≈ 20.2 µM)	–	–
Cn1nccc1Nc1nccc(-c2ccn([C@H](CO)c3ccc(Cl)c(F)c3)c(=O)c2)n1 [Ravoxertinib]	> 300	4 (≈ 9.07 µM)	–	–
Cn1ncnc1[C@H]1c2n[nH]c(=O)c3cc(F)cc(c23)N[C@@H]1c1ccc(F)cc1 [Talazoparib]	> 300	100 (≈ 263 µM)	–	–
COc1ccc([C@@H](O)c2cc(-c3ncnc4cc(N5CCOCC5)ccc34)c(F)cc2Cl)nn1 [Nedisertib]	> 300	80 (≈ 166 µM)	–	–
CNC(=O)c1cc(Oc2ccc(NC(=O)Nc3ccc(Cl)c(C(F)(F)F)c3)c(F)c2)ccn1 [Regorafenib]	> 300	–	1 (≈ 2.07 µM)	–
O=C(c1ccc(F)c(F)c1Nc1ccc(I)cc1F)N1CC(O)([C@@H]2CCCCN2)C1 [Cobimetinib]	> 300	40 (≈ 75.3 µM)	–	–
Cc1ccc(Nc2nccc(N(C)c3ccc4c(C)n(C)nc4c3)n2)cc1S(N)(=O)=O [Pazopanib]	> 300	–	40 (≈ 91.4 µM)	–
CCOc1cc2ncc(C#N)c(Nc3ccc(OCc4ccccn4)c(Cl)c3)c2cc1NC(=O)/C=C/CN(C)C [Neratinib]	> 300	6 (≈ 10.8 µM)	–	–
CN(C)C/C=C/C(=O)Nc1cc2c(Nc3ccc(F)c(Cl)c3)ncnc2cc1O[C@H]1CCOC1 [Afatinib]	> 300	10 (≈ 20.6 µM)	–	–
C=CC(=O)N1CCC[C@@H](n2nc(-c3ccc(Oc4ccccc4)cc3)c3c(N)ncnc32)C1 [Ibrutinib]	> 300	20 (≈ 45.4 µM)	–	–
C[C@H]1Oc2cc(cnc2N)-c2c(nn(C)c2C#N)CN(C)C(=O)c2ccc(F)cc21 [Lorlatinib]	> 300	100 (≈ 246 µM)	–	–
COc1cc(/C=C/C(=O)CC(=O)/C=C/c2ccc(O)c(OC)c2)ccc1O [Curcumin]	< 100	–	6 (≈ 16.3 µM)	–
Nc1ncccc1-c1nc2ccc(-c3ccccc3)nc2n1-c1ccc(C2(N)CCC2)cc1 [Miransertib]	> 300	–	–	60 (≈ 139 µM)
CCCc1cc(C)[nH]c(=O)c1CNC(=O)c1cc(-c2ccnc(N3CCN(C)CC3)c2)cc2c1cnn2C(C)C [GSK343]	> 300	1 (≈ 1.85 µM)	–	–
CC(C)Cc1ccc(C(C)C(=O)O)cc1 (centres unmarked) [Ibuprofen]	< 100	–	–	–
O=C(c1cc(Cc2n[nH]c(=O)c3ccccc23)ccc1F)N1CCN(C(=O)C2CC2)CC1 [Olaparib]	> 300	120 (≈ 276 µM)	–	–
CC(C)Nc1cc(-c2c[nH]c(C(=O)N[C@H](CO)c3cccc(Cl)c3)c2)c(Cl)cn1 [Ulixertinib]	> 300	4 (≈ 9.23 µM)	–	–
CC(C)C[C@H](NC(=O)[C@H](Cc1ccccc1)NC(=O)c1cnccn1)B(O)O [Bortezomib]	> 300	50 (≈ 130 µM)	–	–
CC(C)(C)C[C@@H]1N[C@@H](C(=O)N[C@H]2CC[C@H](O)CC2)[C@H](c2cccc(Cl)c2F)[C@]12C(=O)Nc1cc(Cl)ccc12 [SAR405838]	> 300	2 (≈ 3.56 µM)	–	–
COC(=O)N[C@@H](C)CNc1nccc(-c2cn(C(C)C)nc2-c2cc(Cl)cc(NS(C)(=O)=O)c2F)n1 [Encorafenib]	> 300	10 (≈ 18.5 µM)	–	–
NC(=O)c1cccc2cn(-c3ccc([C@@H]4CCCNC4)cc3)nc12 [Niraparib]	> 300	10 (≈ 31.2 µM)	–	–
